The results in this text go back to US20100034746A1, “ANIMAL MODEL, SYSTEM, AND METHOD FOR SCREENING COMPOUNDS FOR ANTI[…]/OR TH[…]” (Piramal Life Sciences Limited, priority 2007, published 2010).

In assay [1] the test system is thrombus formation. In words: Cross-circulation thrombosis model, cannulae connected with latex tubing; survival time of recipient after blocking trachea. Type of assay: in vivo, Wistar rats. The settings on record: cannula with latex tubing; for Survival time (min) Mean ± S.E.: recipient rat; for Survival time of the recipients, result in words: compared with vehicle/saline treated control animals. An excerpt: Wistar rats (either sex; weighing 290-310 g) were used throughout the experiments. Animals were housed and cared for in accordance with the Guidelines in force published by CPCSEA (Committee for the Purpose of Control and Supervision of Experiments on Animals), Tamil Nadu, India. Procedures using laboratory animals were approved by the IAEC (Institutional Animal Ethics Committee) of the Research Centre of Nicholas Piramal India Limited, Mumbai, India.
In one experiment a pair of rats were anesthetized using urethane (1.5 g/kg; Fluka) by intra-peritoneal administration. After anesthetization, one of the jugular veins and carotid arteries of each of the rats were exposed and clamped. Polyethylene cannulae (0.76 mm ID and 1.22 mm OD, polyethylene tubing, each 6.0 cm in length; Portex Ltd) filled with normal saline (0.9%, w/v, sodium chloride, Merck) were introduced into these vessels and secured tightly by tying with cotton thread (No. 40, Madura Coats Ltd., India). Furthermore, trachea of any one of the rats was exposed and a piece of thread was put loosely around it (recipient). Then the arterial cannula of one of the rats was connected to the venous cannula of the other rat and vice versa, using 2.5 cm long piece of latex tubing (0.89 mm ID; PharMed, Cole-Parmer). FIG. 1 schematically illustrates these rats.
The experiment was initiated by opening the clamps on all the vessels, which initiated cross circulation of blood between the two animals. […] FIG. 2 schematically illustrates these rats.
Survival was monitored by the animal's effort to respire.
In another experiment, pairs of rats were treated with antithrombotic/thrombolytic agents selected from the following list:
The drug suspensions for oral use were prepared in the vehicle, carboxymethyl cellulose (CMC, 0.5% w/v, Sigma), using polyoxyethylenesorbitan monooleate (Tween 80, Sigma) as a wetting agent. Commercially available streptokinase solution was diluted with normal saline to an appropriate concentration for the i.v. use.
Vehicle/drugs were administered to rats orally at the doses mentioned above, in a volume of 1 ml/kg. With the exception of streptokinase, all other drugs were administered once daily for three consecutive days and the experiment was performed on the third day, one hour after the administration of the last dose. The vehicle-treated animals were used as controls.
Streptokinase was administered as a continuous infusion at a dose of 60,000 I.U./ml/kg/hour intravenously, through the femoral vein of the recipient and was administered only on the day of experiment. As a source of plasminogen, human plasma was injected to the animal intravenously at a dose of 1 ml/kg, just before blocking the trachea. Streptokinase infusion was initiated two minutes after blocking the trachea of the recipient. Saline-infused animals were used as control for streptokinase-treated animals.
(§1) The survival time of the recipients in the abovementioned experiments was recorded.

Assay [2] concerns thrombus formation. Briefly: Cross-circulation thrombosis model, cannulae connected with damaged rat thoracic aorta; survival time of recipient after blocking trachea. It counts as in vivo, Wistar rats.
Text: In the present experiment, the piece of latex tubing used in Example 1 was replaced by a piece of rat thoracic aorta with damaged endothelium, so that the anti-thrombotic effect of the compounds could be studied in a near natural situation.
Maintenance of a patent vasculature is critical to provide blood flow to dependent tissues. […] Following vessel injury, active hemostasis results from vasoconstriction, adherence of activated platelets to damaged endothelium, their aggregation and activation of coagulation enzymes, finally resulting into thrombosis. It has been shown that chronic carbon tetrachloride treatment to rats causes serious damage to vascular endothelial cells and thus the blood vessels get damaged. It was thought of using these damaged vessels, instead of latex tubing (used in Example 1), to connect arterial and venous cannulae of donor and recipient, in order to mimic the physiological process of thrombus formation.
They were administered carbon tetrachloride (Fluka) in olive oil (Figaro, Spain) (1:1 v/v), 0.5 ml/kg, intraperitoneally, twice a week for eight continuous weeks. […]
In spite of the blocked trachea, the recipient survived, as long as the oxygenated blood supply from the donor continued. Survival was monitored by the animal's effort to respire. […]
as §1

Setting [3] is: 20 mg/kg p.o. once daily for three days, 1 h after last dose, CMC control 10.9 ± 0.70.

For the compound `OCCN(CCO)c1nc(N2CCCCC2)c2nc(N(CCO)CCO)nc(N3CCCCC3)c2n1` [Dipyridamole], the “Survival time (min) Mean ± S.E.” value in the assay with thrombus formation [1] (setting [3]) was found to be 38.5 ± 1.55 min.

In the case of `COC(=O)[C@H](c1ccccc1Cl)N1CCc2sccc2C1` [Clopidogrel, Clopidogrel bisulphate], in the assay with thrombus formation [1] (setting [3]), the “Survival time (min) Mean ± S.E.” value is reported as 47.8 ± 3.78 min.

In the case of Streptokinase, in the assay with thrombus formation [1], the “Survival time of the recipients, result in words” value is given as “significant prolongation of the survival time”. The “Survival time (min) Mean ± S.E.” value in the assay with thrombus formation [1] (60,000 IU/ml/kg/hr i.v. continuous infusion, human plasma 1 ml/kg i.v., saline control 10.4 ± 0.91) was determined as 89.5 ± 10.55 min.

As to `CC(=O)Oc1ccccc1C(=O)O` [Aspirin, acetylsalicylic acid], the “Survival time of the recipients, result in words” value with thrombus formation [1] is “Significant increase in the survival time”. The “Survival time (min) Mean ± S.E.” value is listed as 45.3 ± 4.40 min with thrombus formation [1] (20 mg/kg p.o. once daily for three days, 1 h after last dose, CMC control 10.9 ± 0.70, 20 mg/kg) and 33.9 ± 4.58 min in the assay with thrombus formation [2] (recipient rat, cannula with damaged thoracic aorta, 20 mg/kg p.o. once daily for three days, CMC control 5.18 ± 0.99). The “Survival time of the recipient, result in words” value with thrombus formation [2] (cannula with damaged blood vessel, compared with appropriate control animals) is given as “Significant increase in the survival time”.
